Laboratory results reported in patent publication US20110076349A1 (priority 2008, published 2011).
Where a name gives a salt, the structure may show the parent alone.

What was measured:
Assay type in all cases: in vivo, mouse
male C57BL/6N mice [1] = assay: Forced swimming treatment and amount of spontaneous activity in dark period (fatigue-relieving effects); conditions: dark period after 30 minutes of forced swimming; compared with FS-Vehicle group
Description: An experiment for determining the fatigue-improving effects (action) was conducted using a forced swimming test for mice and a system for measuring the amount of spontaneous activity. Sixty eight (68) male C57BL/6N mice that had experienced no experiment were bred in an animal room with a constant temperature and humidity for which a 12-12-hour light-dark cycle had been set. Mice were sufficiently acclimatized to breeding environment and then used as subject animals. At the start of the experiment, mice were 10-12-week old and the average body weight was 22.8 g (SD =1.28). The subject animals were divided into seven groups so that the groups were almost the same in terms of average body weights and average ages in weeks. These groups were designated an FS-Akino group (n=11), an FS-Vehicle group (n=10), a noFS-Vehicle group (n=9), an FS-Dia group (n=9), an FS-Caf group (n=9), an FS-Imi group (n=11), and an FS-SSRI group (n=9).
A cylindrical water tank (with the bottom surface having a diameter of 18 cm and a height of 29 cm) placed in an experimental chamber capable of achieving sound proof and light shielding was filled with water at 24±1° C. to a depth of 15 cm. At 7 hours before the start of a dark period, subject mice under FS conditions were subjected to 30 minutes of forced swimming treatment in the tank. Specifically, subject mice were forced to swim under conditions in which they could not escape. Subject mice of the control noFS-Cnt group were left to stand within the same type of empty water tank for 30 minutes.
After 30 minutes of forced swimming treatment, Akino (the water soluble ingredient extracted from Hemerocallis fulva var. sempervirens), diazepam (Dia, 2.5 mg/kg), caffeine (Caf, 15 mg/kg), imipramine (Imi, 30 mg/kg), SSRI (fluvoxamine maleate, 25 mg/kg), or Vehicle (distilled water), which is an ingredient, corresponding to the latter half of each group name, were specifically administered to each subject mouse. Akino and distilled water were orally administered using a stomach tube, and diazepam, caffeine, imipramine, and SSRI were injected intraperitoneally. The dose was always 10 ml of solution per kg mouse body weight.
After administration of these drugs, subject mice were placed in acrylic cages (20 cm long×30 cm wide×12 cm high). The amount of spontaneous activity (in the dark period that began at 6 hours after administration) was continuously measured for 12 hours. The breeding cages used herein were sterilized in advance. All floor mats, feeding stuffs, water supply bottles, and the like used herein were newly prepared. The amount of spontaneous activity was measured using a system for measuring the amount of exercise of experimental animals (Muromachi Kikai Co., Ltd.) using Super Mex Sensor and dedicated software (CompACT AMS ver.3).

mice [2] = assay: Comparison of sedative effects with other test substances (FIG. 3); conditions: same dose, 0.8 g/kg, p.o.
mice [3] = assay: Deep body temperature measurement, comparison with other test substances (FIG. 18); conditions: same concentration for all test substances
male C57BL/6N mice [4] = assay: Open space swimming treatment and water maze learning (antidepressant-like effects); conditions: phase 2 after open space swimming; 25 mg/kg intraperitoneal
Source text: Fifty (50) male C57BL/6N mice that had experienced no experiment were bred in an animal room with a constant temperature and humidity for which a 12-12-hour light-dark cycle had been set. Mice were sufficiently acclimatized to breeding environment and then used as subject animals. At the start of the experiment, mice were 10-14-week old and the average body weight was 23.7 g (SD=3.21). The subject animals were divided into four groups each consisting of 12 or 13 mice so that the groups were almost the same average body weights and average ages in weeks. These groups were designated an OS-Akino group, an OS-SSRI group, an OS-Vehicle group, and a noOS-Vehicle group, respectively. An experimental apparatus was a circular pool coated white having a diameter of 110 cm and a height of 40 cm. The pool was filled with water to the depth of 22 cm. Titanium oxide was added to make water cloudy. The water temperature was maintained at 24° C.±1 ° C.
The experiment was composed of two phases. In phase 1, subject mice of the 3 groups under OS conditions were subjected to open space swimming treatment (OS) for 5 straight days. Specifically, subject mice were released into the pool from a wall once a day and then caused to swim for 5 minutes. […] Specifically, 5 times a day, mice were released into the pool and then the time for the mice to reach the escape platform (escape latency) was measured. […]

Compound: CN1C(=O)CN=C(c2ccccc2)c2cc(Cl)ccc21 [Dia, diazepam]
- amount of spontaneous activity (male C57BL/6N mice [1]): higher than that of the FS-Vehicle group

Compound: NCC(=O)O [glycine]
- sedative effects (mice [2]): sedative effects
- rectal temperature (deep body temperature) (mice [3]): lowered the deep body temperature, but the rate of decrease was lower

Compound: CN(C)CCCN1c2ccccc2CCc2ccccc21 [Imi, imipramine]
- amount of spontaneous activity (male C57BL/6N mice [1]): equivalent to that of the FS-Vehicle group

Compound: NCCCC(=O)O [GABA, γ-aminobutyric acid]
- sedative effects (mice [2]): sedative effects
- rectal temperature (deep body temperature) (mice [3]): lowered the deep body temperature, but the rate of decrease was lower

Compound: COCCCC/C(=N\OCCN)c1ccc(C(F)(F)F)cc1 [SSRI, fluvoxamine maleate]
- water maze learning (male C57BL/6N mice [4]): good learning
- amount of spontaneous activity (male C57BL/6N mice [1]): equivalent to that of the FS-Vehicle group

Compound: CCNC(=O)CC[C@H](N)C(=O)O [teanin]
- sedative effects (mice [2]): sedative effects
- rectal temperature (deep body temperature) (mice [3]): lowered the deep body temperature, but the rate of decrease was lower

Compound: Cn1c(=O)c2c(ncn2C)n(C)c1=O [Caf, caffeine]
- amount of spontaneous activity (male C57BL/6N mice [1]): equivalent to that of the FS-Vehicle group
